Assays:
[1] = target: T1, CLK1 (Homo sapiens, UniProt P49759); experiment: Radiometric protein kinase assay (33PanQinase Activity Assay), CLK1; assay type: biochemical; details: class by IC50 on CLK1, from dose-response curves; read-out: Potency Class CLK1
T1 construct: GST-fusion or His-tag (not specified per kinase); purchased ProQinase GmbH; host or cells: Sf9 insect cells or E. coli (not specified per kinase)
Description: Assays were performed by ProQinase GmbH (Engesserstr. 4, D-79108 Freiburg, Germany. www.proqinase.com). The IC50 profile of all compounds was determined using 12 protein kinases (CDK2/cyclin E, CK1ε, CLK1, 2, 3, 4, DYRK1A, 1B, 2, 3, 4, GSK3β).
(§1) The compounds were provided as […] in 100% DMSO. Prior to testing, the 1 μM stock solutions were subjected to a serial, semi-logarithmic dilution using 100% DMSO as a solvent. […] In the process, 90 μl H2O were added to each well of each compound dilution plate. To minimize potential precipitation, the H2O was added to each plate only a few minutes before the transfer of the compound solutions into the assay plates. The plate was shaken thoroughly, resulting in a compound dilution plate/10% DMSO.
(§2) For the assays (see below), 5 μL solution from each well of the compound dilution plates/10% DMSO were transferred into the assay plates. The final volume of the assay was 50 μL. All compounds were tested at 10 final assay concentrations in the range from 10 μM to 30 nM. The final DMSO concentration in the reaction cocktails was 1% in all cases.
(§3) All protein kinases provided by ProQinase were expressed in Sf9 insect cells or in E. coli as recombinant GST-fusion proteins or His-tagged proteins, either as full-length or enzymatically active fragments. All kinases were produced from human cDNAs and purified by either GSH-affinity chromatography or immobilized metal. Affinity tags were removed from a number of kinases during purification. The purity of the protein kinases was examined by SDS-PAGE/Coomassie staining, the identity was checked by mass spectroscopy.
(§4) A radiometric protein kinase assay (33PanQinase® Activity Assay) was used for measuring the kinase activity of the 12 protein kinases. All kinase assays were performed in 96-well FlashPlates™ from PerkinElmer (Boston, MA, USA) in a 50 μL reaction volume. The reaction cocktail was pipetted in four steps in the following order: • 25 μL of assay buffer (standard buffer/[γ-^33P]-ATP), • 10 μL of ATP solution (in H2O), • 5 μL of test compound (in 10% DMSO), • 10 μL of enzyme/substrate mixture.
(§5) The reaction cocktails were incubated at 30° C. for 60 minutes. The reaction was stopped with 50 μL of 2% (v/v) H3PO4, plates were aspirated and washed two times with 200 μL 0.9% (w/v) NaCl. Incorporation of ^33Pi was determined with a microplate scintillation counter (Microbeta, Wallac). The IC50 values for all compounds were calculated from the dose response curves
As a parameter for assay quality, the Z′-factor (Zhang et al., J. Biomol. Screen. 2: 67-73, 1999) for the low and high controls of each assay plate (n=8) was used. ProQinase's criterion for repetition of an assay plate is a Z′-factor below 0.4 (Iversen et al., J. Biomol. Screen. 3: 247-252, 2006).

[2] = target: T2, DYRK1A (Homo sapiens, UniProt Q13627); experiment: Radiometric protein kinase assay (33PanQinase Activity Assay), DYRK1A; assay type: biochemical; details: for IC50: class by IC50 on DYRK1A, from dose-response curves, read-out: Potency Class DYRK1A; for Selectivity Class DYRK1A vs. CLK1: ratio of IC50 on CLK1 over IC50 on DYRK1A; for Selectivity Class DYRK1A vs. DYRK1B: ratio of IC50 on DYRK1B over IC50 on DYRK1A
T2 construct: GST-fusion or His-tag (not specified per kinase); purchased ProQinase GmbH; host or cells: Sf9 insect cells or E. coli (not specified per kinase)
Description: The IC50 profile of all compounds was determined using 12 protein kinases (CDK2/cyclin E, CK1ε, CLK1, 2, 3, 4, DYRK1A, 1B, 2, 3, 4, GSK3β).
as §1, §2, §3, §4, §5

T1 sequence (P49759 whole entry, the tested form may be a part): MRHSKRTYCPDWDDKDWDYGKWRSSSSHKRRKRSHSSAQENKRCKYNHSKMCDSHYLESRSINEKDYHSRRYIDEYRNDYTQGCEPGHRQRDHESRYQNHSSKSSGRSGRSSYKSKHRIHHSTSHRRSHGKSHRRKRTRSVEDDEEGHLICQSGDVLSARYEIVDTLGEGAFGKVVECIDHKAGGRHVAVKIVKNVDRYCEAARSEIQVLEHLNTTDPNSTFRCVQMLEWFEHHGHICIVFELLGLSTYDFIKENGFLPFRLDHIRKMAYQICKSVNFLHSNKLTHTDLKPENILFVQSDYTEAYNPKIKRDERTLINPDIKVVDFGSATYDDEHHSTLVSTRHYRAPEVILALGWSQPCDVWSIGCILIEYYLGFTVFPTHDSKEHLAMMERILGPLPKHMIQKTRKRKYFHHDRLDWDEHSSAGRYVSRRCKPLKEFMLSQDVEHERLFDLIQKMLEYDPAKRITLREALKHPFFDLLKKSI

IC50 [1] [nM]	IC50 [2] [nM]	Selectivity Class DYRK1A vs. CLK1 [2]	Selectivity Class DYRK1A vs. DYRK1B [2]	Compound
> 50	> 50	IV (ratio between 0.1 and 0.5 fold)	II (ratio between 2 and 10 fold)	O=C1NC(NCC2CCCCC2)=N/C1=C\c1ccc2ncccc2c1 [Compound 45, (4Z)-2-(Cyclohexylmethylamino)-4-(6-quinolylmethylene)-1H-imidazol-5-one]
> 50	10 to 25	II (ratio between 2 and 10 fold)	II (ratio between 2 and 10 fold)	CC(C)C[C@H](CO)NC1=N/C(=C\c2ccc3ncccc3c2)C(=O)N1 [Compound 46, (4Z)-2-[[(1R)-1-(hydroxymethyl)-3-methyl-butyl]amino]-4-(6-quinolylmethylene)-1H-imidazol-5-one]
> 50	25 to 50	II (ratio between 2 and 10 fold)	II (ratio between 2 and 10 fold)	COC[C@@H](CC(C)C)NC1=N/C(=C\c2ccc3ncccc3c2)C(=O)N1 [Compound 47, (4Z)-2-[[(1R)-1-(methoxymethyl)-3-methyl-butyl]amino]-4-(6-quinolylmethylene)-1H-imidazol-5-one]
> 50	> 50	IV (ratio between 0.1 and 0.5 fold)	II (ratio between 2 and 10 fold)	O=C1NC(NCc2ccccc2)=N/C1=C\c1ccc2ncccc2c1 [Compound 51]
> 50	> 50	III (ratio between 0.5 and 2 fold)	II (ratio between 2 and 10 fold)	COC[C@H](NC1=N/C(=C\c2ccc3ncccc3c2)C(=O)N1)c1ccccc1 [Compound 52, (4Z)-2-[[(1R)-2-methoxy-1-phenyl-ethyl]amino]-4-(6-quinolylmethylene)-1H-imidazol-5-one]
> 50	> 50	IV (ratio between 0.1 and 0.5 fold)	III (ratio between 0.5 and 2 fold)	Cc1cnc(CNC2=N/C(=C\c3ccc4ncccc4c3)C(=O)N2)cn1 [Compound 53, (4Z)-2-[(5-Methylpyrazin-2-yl)methylamino]-4-(6-quinolylmethylene)-1H-imidazol-5-one]
> 50	> 50	III (ratio between 0.5 and 2 fold)	II (ratio between 2 and 10 fold)	Cn1ccc(NC2=N/C(=C\c3ccc4ncccc4c3)C(=O)N2)n1 [Compound 54, (4Z)-2-[(1-methylpyrazol-3-yl)amino]-4-(6-quinolylmethylene)-1H-imidazol-5-one]
> 50	> 50	III (ratio between 0.5 and 2 fold)	III (ratio between 0.5 and 2 fold)	O=C1NC(N[C@@H]2CCOC2)=N/C1=C\c1ccc2ncccc2c1 [Compound 55, (4Z)-4-(6-Quinolylmethylene)-2-[[(3R)-tetrahydrofuran-3-yl]amino]-1H-imidazol-5-one]
> 50	> 50	III (ratio between 0.5 and 2 fold)	II (ratio between 2 and 10 fold)	O=C1NC(N[C@@H]2CCCOC2)=N/C1=C\c1ccc2ncccc2c1 [Compound 56, (4Z)-4-(6-quinolylmethylene)-2-[[(3R)-tetrahydropyran-3-yl]amino]-1H-imidazol-5-one]
> 50	> 50	III (ratio between 0.5 and 2 fold)	III (ratio between 0.5 and 2 fold)	O=C1NC(NC2CCCCCC2)=N/C1=C\c1ccc2cnccc2c1 [Compound 57, (4Z)-2-(cycloheptylamino)-4-(6-isoquinolylmethylene)-1H-imidazol-5-one]
> 50	> 50	IV (ratio between 0.1 and 0.5 fold)	III (ratio between 0.5 and 2 fold)	O=C1NC(NCC2CCCCC2)=N/C1=C\c1ccc2cnccc2c1 [Compound 58, (4Z)-2-(Cyclohexylmethylamino)-4-(6-isoquinolylmethylene)-1H-imidazol-5-one]
> 50	> 50	III (ratio between 0.5 and 2 fold)	III (ratio between 0.5 and 2 fold)	CC(C)C[C@H](CO)NC1=N/C(=C\c2ccc3cnccc3c2)C(=O)N1 [Compound 59, (4Z)-2-[[(1R)-1-(hydroxymethyl)-3-methyl-butyl]amino]-4-(6-isoquinolylmethylene)-1H-imidazol-5-one]
> 50	> 50	II (ratio between 2 and 10 fold)	III (ratio between 0.5 and 2 fold)	COC[C@@H](CC(C)C)NC1=N/C(=C\c2ccc3cnccc3c2)C(=O)N1 [Compound 60, (4Z)-4-(6-isoquinolylmethylene)-2-[[(1R)-1-(methoxymethyl)-3-methyl-butyl]amino]-1H-imidazol-5-one]
> 50	> 50	IV (ratio between 0.1 and 0.5 fold)	III (ratio between 0.5 and 2 fold)	COC[C@H](NC1=N/C(=C\c2ccc3cnccc3c2)C(=O)N1)c1ccccc1 [Compound 63, (4Z)-4-(6-isoquinolylmethylene)-2-[[(1R)-2-methoxy-1-phenyl-ethyl]amino]-1H-imidazol-5-one]
> 50	> 50	III (ratio between 0.5 and 2 fold)	IV (ratio between 0.1 and 0.5 fold)	Cc1cnc(CNC2=N/C(=C\c3ccc4cnccc4c3)C(=O)N2)cn1 [Compound 64, (4Z)-4-(6-Isoquinolylmethylene)-2-[(5-methylpyrazin-2-yl)methylamino]-1H-imidazol-5-one]
> 50	> 50	IV (ratio between 0.1 and 0.5 fold)	III (ratio between 0.5 and 2 fold)	Cn1ccc(NC2=N/C(=C\c3ccc4cnccc4c3)C(=O)N2)n1 [Compound 65, (4Z)-4-(6-Isoquinolylmethylene)-2-[(1-methylpyrazol-3-yl)amino]-1H-imidazol-5-one]
> 50	> 50	III (ratio between 0.5 and 2 fold)	IV (ratio between 0.1 and 0.5 fold)	O=C1NC(N[C@@H]2CCOC2)=N/C1=C\c1ccc2cnccc2c1 [Compound 66, (4Z)-4-(6-Isoquinolylmethylene)-2-[[(3R)-tetrahydrofuran-3-yl]amino]-1H-imidazol-5-one]

Compound	IC50 [1] [nM]	IC50 [2] [nM]	Selectivity Class DYRK1A vs. CLK1 [2]	Selectivity Class DYRK1A vs. DYRK1B [2]
O=C1NC(NCc2ccccc2)=N/C1=C\c1ccc2cnccc2c1 [Compound 62, (4Z)-2-(benzylamino)-4-(6-isoquinolylmethylene)-1H-imidazol-5-one]	> 50	> 50	V (ratio >0.1 fold (most CLK1- or DYRK1B-selective compounds))	IV (ratio between 0.1 and 0.5 fold)

Reference: patent US20250340538A1, “IMIDAZOLONE DERIVATIVES AS INHIBITORS OF PROTEIN KINASES IN PARTICULAR DYRK1A, CLK1 AND/OR CLK4” (PERHA PHARMACEUTICALS, priority 2021, published 2025)
